This note sets out measurements from patent publication US20060173068A1, “Amorphous and crystalline forms of dorzolamide hydrochloride and processes of making same” (priority 2005, published 2006).

The nature of data set [1]: Effect of varying relative humidity on amorphous Dorzolamide hydrochloride (hygroscopicity chamber; LOD by TGA, crystal form by XRD). The class given is physicochemical. As to the method: (§1) The scanning parameters are as follows: the range is preferably about 2° to about 40° 2θ over a substantially continuous scan at a rate of about 3° per minute. The accuracy of peak positions is defined as ±0.2° due to experimental differences, such as instrumentations, sample preparations, and the like.
Thermal Gravimetric Analysis (TGA) is preferably performed with a Mettler Toledo TGA/SDTA 851^e. Sample weights preferably range from about 7 to about 15 mg, the heating rate is preferably about 10° C. per minute in a N2 stream having a flow rate of about 50 ml per minute over a scan range of about 30° to about 250° C.
Each of a series of 200 mg samples of amorphous Dorzolamide hydrochloride are exposed to a relative humidity (RH) of one of 0, 20, 40, 60, 80, and 100 percent for a period of 5 days at room temperature in a hygroscopicity chamber. The loss on drying (LOD) of the samples is measured by TGA before and after exposure, and the values obtained are plotted against the RH values. In addition, the crystal form of each sample is measured by XRD before and after the exposure.

Data set [2] is described as follows: Exposure of amorphous Dorzolamide HCl to about 160° C. for about 15 minutes, crystal form by XRD. The class given is physicochemical. The following applies: oven, open glass weighing bottle. As for the experimental part: as §1
Setting [3] is: RH 0 %, 5 days, room temperature.
Where [4] appears, read: RH 20 %, 5 days, room temperature.
The mark [5] stands for this setting: RH 40 %, 5 days, room temperature.

For the molecule `CCN[C@H]1C[C@H](C)S(=O)(=O)c2sc(S(N)(=O)=O)cc21.Cl` [Amorphous Dorzolamide HCl, 5,6-dihydro-4-(S)-ethylamino-6-(S)-methyl-4H-thieno-[2,3-b]thiopyran-2-sulfonamide-7,7-dioxyde hydrochloride], the “Crystal form by XRD” value in data set [1] (Original sample, before exposure) is reported as “amorphous”; in data set [1] (setting [3]), “amorphous”; in data set [1] (setting [4]) it was “amorphous”; in data set [1] (setting [5]) it was “amorphous”; in data set [1] (RH 60 %, 5 days, room temperature, hydrochloride) it was “Form II”; in data set [1] (RH 60 %, 5 days, room temperature, listed as Dorzolamide HCl, hydrochloride), “transforms to crystal form II”. Besides, the “Crystal form by XRD” value is listed as “Form II” in data set [1] (RH 80 %, 5 days, room temperature, hydrochloride); “transforms to crystal form II” in data set [1] (RH 80 %, 5 days, room temperature, listed as Dorzolamide HCl, hydrochloride); “Form II” in data set [1] (RH 100 %, 5 days, room temperature, hydrochloride); “transforms to crystal form II” in data set [1] (RH 100 %, 5 days, room temperature, listed as Dorzolamide HCl, hydrochloride). The “LOD (%)” value in data set [1] (Original sample, before exposure, LOD by TGA) was determined as 2.7%; in data set [1] (setting [3]), 2.0%; in data set [1] (setting [4]), 2.9%; in data set [1] (setting [5]) it was 3.8%; in data set [1] (RH 60 %, 5 days, room temperature) it was 0.2%; in data set [1] (RH 80 %, 5 days, room temperature) it was 0.2%. Also, the “LOD (%)” value in data set [1] (RH 100 %, 5 days, room temperature) is reported as 0.2%. Besides, the “Crystal form by XRD after heating” value in data set [2] is recorded as “changed the material to the crystalline, anhydrous form II”.
